US20260070899A1, “N-(2-(4-CYANOTHIAZOLIDIN-3-YL)-2-OXOETHYL)-QUINOLINE-4-CARBOXAMIDES” (AstraZeneca AB, priority 2022, published 2026)
pIC50, pKd: −log10 of the molar value.

Tests used:
Test in all cases: biochemical
[1] = molecular target: T1, Prolyl endopeptidase, Prolyl Oligopeptidase (hPREP) (Homo sapiens, UniProt P48147)
T1 sequence (P48147 1-710): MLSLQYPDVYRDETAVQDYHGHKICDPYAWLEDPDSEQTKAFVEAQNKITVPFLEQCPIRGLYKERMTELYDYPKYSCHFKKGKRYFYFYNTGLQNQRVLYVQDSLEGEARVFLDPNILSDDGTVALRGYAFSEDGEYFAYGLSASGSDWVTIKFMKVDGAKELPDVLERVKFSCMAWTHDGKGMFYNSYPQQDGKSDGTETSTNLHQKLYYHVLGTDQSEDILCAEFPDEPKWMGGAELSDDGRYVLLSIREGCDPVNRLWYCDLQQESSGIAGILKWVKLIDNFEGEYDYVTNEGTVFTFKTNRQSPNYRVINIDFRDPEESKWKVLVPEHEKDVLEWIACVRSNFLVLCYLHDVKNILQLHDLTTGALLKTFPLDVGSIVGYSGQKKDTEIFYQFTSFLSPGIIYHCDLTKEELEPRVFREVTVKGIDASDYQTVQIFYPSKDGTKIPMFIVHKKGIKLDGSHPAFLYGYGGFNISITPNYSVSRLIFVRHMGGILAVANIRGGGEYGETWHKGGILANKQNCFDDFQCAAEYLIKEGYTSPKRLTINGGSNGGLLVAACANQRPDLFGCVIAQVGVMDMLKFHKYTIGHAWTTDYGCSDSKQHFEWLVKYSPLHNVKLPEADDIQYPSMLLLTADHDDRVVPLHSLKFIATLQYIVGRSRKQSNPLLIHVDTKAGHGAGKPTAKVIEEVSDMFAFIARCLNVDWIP
Description: Compounds were tested in a biochemical inhibition assay using Prolyl endopeptidase, Prolyl Oligopeptidase (hPREP) enzyme at 0.6 nM FAC (R&D Systems, 4308-SE) and the substrate Z-Gly-Pro-amino-methylcoumarin (Bachem, I-1145) at 50 μM FAC. 384 Low volume black plates (Greiner #784076) were used. […] Plates were incubated for 15 min at rt in dark. 4 μL, 100 μM substrate solution (25 mM Tris HCl, 250 mM NaCl, 0.01% Triton X-100, 5 mM Glutathione, pH 7.5) was added to each well. Plates were centrifuged at 1000 rpm and incubated for 20 min at rt in dark. The plates were read on a PHERAstar® reader with excitation 340 nm and emission 460 nm. Data were analyzed in Genedata Screener®. IC50 values were determined by plotting % inhibition versus log compound concentration and using a one site dose response model.

[2] = molecular target: T2, hFAP (M39-A757) (Homo sapiens, UniProt Q12884);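 further: surface plasmon resonance direct binding to hFAP amine-coupled on a sensor chip, rising compound concentrations by single cycle kinetics, Kd from global fit of interaction models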
T2 sequence (Q12884 39-757): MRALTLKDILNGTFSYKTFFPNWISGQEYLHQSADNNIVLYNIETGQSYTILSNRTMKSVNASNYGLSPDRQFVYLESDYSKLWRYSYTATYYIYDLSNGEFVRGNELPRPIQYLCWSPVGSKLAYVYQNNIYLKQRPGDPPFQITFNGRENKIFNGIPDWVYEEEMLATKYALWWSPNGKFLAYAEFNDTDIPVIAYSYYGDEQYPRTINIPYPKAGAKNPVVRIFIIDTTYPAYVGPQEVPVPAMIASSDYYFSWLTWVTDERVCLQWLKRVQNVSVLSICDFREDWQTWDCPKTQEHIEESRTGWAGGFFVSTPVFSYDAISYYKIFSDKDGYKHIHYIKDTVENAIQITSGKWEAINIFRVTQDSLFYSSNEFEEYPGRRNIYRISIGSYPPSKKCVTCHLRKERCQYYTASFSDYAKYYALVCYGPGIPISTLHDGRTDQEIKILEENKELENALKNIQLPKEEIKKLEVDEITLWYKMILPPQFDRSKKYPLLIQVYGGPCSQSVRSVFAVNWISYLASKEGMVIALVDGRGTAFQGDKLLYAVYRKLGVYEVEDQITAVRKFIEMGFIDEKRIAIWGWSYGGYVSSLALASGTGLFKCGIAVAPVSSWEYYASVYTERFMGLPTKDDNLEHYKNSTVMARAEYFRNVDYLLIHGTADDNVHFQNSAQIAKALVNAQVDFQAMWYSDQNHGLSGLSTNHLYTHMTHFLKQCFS

[3] = molecular target: T3, hFAP (Homo sapiens, UniProt Q12884);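 further: substrate fluorescence read at room temperature in darkness, IC50 obtained by one-site dose-response fitting of percent inhibition against log concentration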
T3 sequence (Q12884 38-760): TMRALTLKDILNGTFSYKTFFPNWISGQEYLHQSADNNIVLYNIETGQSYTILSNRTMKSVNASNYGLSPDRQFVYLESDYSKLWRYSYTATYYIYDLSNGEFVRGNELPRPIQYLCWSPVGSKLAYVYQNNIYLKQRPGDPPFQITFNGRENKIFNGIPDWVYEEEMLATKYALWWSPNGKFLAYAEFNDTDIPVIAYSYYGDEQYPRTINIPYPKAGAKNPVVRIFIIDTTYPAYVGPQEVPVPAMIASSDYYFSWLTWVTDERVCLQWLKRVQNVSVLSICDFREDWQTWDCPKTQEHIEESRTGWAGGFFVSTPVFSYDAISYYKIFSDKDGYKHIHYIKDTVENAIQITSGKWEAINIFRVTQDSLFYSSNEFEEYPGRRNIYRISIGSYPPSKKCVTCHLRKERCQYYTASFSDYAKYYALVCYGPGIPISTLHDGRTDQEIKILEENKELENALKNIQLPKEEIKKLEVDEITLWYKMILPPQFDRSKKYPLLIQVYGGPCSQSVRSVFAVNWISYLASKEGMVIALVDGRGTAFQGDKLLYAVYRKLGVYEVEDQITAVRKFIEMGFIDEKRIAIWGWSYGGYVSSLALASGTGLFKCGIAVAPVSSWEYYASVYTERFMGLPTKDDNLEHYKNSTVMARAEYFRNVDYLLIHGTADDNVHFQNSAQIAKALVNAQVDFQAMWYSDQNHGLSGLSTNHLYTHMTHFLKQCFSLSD
Description: 384 low volume black plates (Greiner #784076) were used. 4 μL, 0.48 nM enzyme solution (100 mM Tris HCl, 100 mM NaCl, 0.05% Chaps, pH 7.4) was added to 40 nL compounds (in DMSO) at 10 CR, 3 fold dilution series from 50 μM FAC. Plates were incubated for 15 min at rt in dark. 4 μL, 40 μM substrate solution (100 mM Tris HCl, 100 mM NaCl, 0.05% Chaps, pH 7.4) was added to each well. Plates were centrifuged at 1000 rpm and incubated for 30 min at rt in dark. The plates were read on a PHERAstar® reader with excitation 340 nm and emission 460 nm. Data were analyzed in Genedata Screener®. IC50 values were determined by plotting % inhibition versus log compound concentration and using a one site dose response model.

| pIC50 [1] | pKd [2] | pIC50 [3] | SMILES |
| --- | --- | --- | --- |
| 6.36 | 9.10 | 9.18 | CC(O)c1ccc2nccc(C(=O)NCC(=O)N3CSC[C@H]3C#N)c2c1 (mixture of isomers) [Example 25, N-(2-((R)-4-Cyanothiazolidin-3-yl)-2-oxoethyl)-6-((RS)-1-hydroxyethyl)quinoline-4-carboxamide] |
| 6.23 | 10.00 | 9.66 | Cc1nn(C)nc1Cc1ccc2nccc(C(=O)NCC(=O)N3CSC[C@H]3C#N)c2c1 [Example 19, (R)—N-(2-(4-Cyanothiazolidin-3-yl)-2-oxoethyl)-6-((2,5-dimethyl-2H-1,2,3-triazol-4-yl)methyl)quinoline-4-carboxamide] |
| 7.46 | 9.48 | 9.36 | N#C[C@@H]1CSCN1C(=O)CNC(=O)c1ccnc2ccc(Oc3ccccc3)cc12 [Example 1, (R)—N-(2-(4-Cyanothiazolidin-3-yl)-2-oxoethyl)-6-phenoxyquinoline-4-carboxamide] |
| 6.17 | 9.52 | 9.27 | N#C[C@@H]1CSCN1C(=O)CNC(=O)c1ccnc2ccc(C3COCCO3)cc12 (mixture of isomers) [Example 33, N-(2-((R)-4-Cyanothiazolidin-3-yl)-2-oxoethyl)-6-((RS)-1,4-dioxan-2-yl)quinoline-4-carboxamide] |
| 6.33 | 8.33 | 9.08 | COC(C)c1ccc2nccc(C(=O)NCC(=O)N3CSC[C@H]3C#N)c2c1 (mixture of isomers) [Example 26, N-(2-((R)-4-Cyanothiazolidin-3-yl)-2-oxoethyl)-6-((RS)-1-methoxyethyl)quinoline-4-carboxamide] |
| 6.25 | 10.89 | 9.62 | N#C[C@@H]1CSCN1C(=O)CNC(=O)c1ccnc2ccc(C3=CCOCC3)cc12 [Example 22, (R)—N-(2-(4-Cyanothiazolidin-3-yl)-2-oxoethyl)-6-(3,6-dihydro-2H-pyran-4-yl)quinoline-4-carboxamide] |
| 6.34 | 9.51 | 9.21 | N#C[C@@H]1CSCN1C(=O)CNC(=O)c1ccnc2ccc(C3CCCO3)cc12 (mixture of isomers) [Example 34, N-(2-((R)-4-Cyanothiazolidin-3-yl)-2-oxoethyl)-6-((RS)-tetrahydrofuran-2-yl)quinoline-4-carboxamide] |
| 6.46 | 10.59 | 9.70 | N#C[C@@H]1CSCN1C(=O)CNC(=O)c1ccnc2ccc([C@]34CCOC[C@H]3C4)cc12 (racemic) [Example 69, 6-((1RS,6SR)-3-Oxabicyclo[4.1.0]heptan-6-yl)-N-(2-((R)-4-cyanothiazolidin-3-yl)-2-oxoethyl)quinoline-4-carboxamide] |
| 6.48 | 10.12 | 9.52 | CC1(C)CC(c2ccc3nccc(C(=O)NCC(=O)N4CSC[C@H]4C#N)c3c2)CCO1 (mixture of isomers) [Example 68, N-(2-((R)-4-Cyanothiazolidin-3-yl)-2-oxoethyl)-6-((RS)-2,2-dimethyltetrahydro-2H-pyran-4-yl)quinoline-4-carboxamide] |
| 7.47 | 8.80 | 9.19 | Cc1ccc2nccc(C(=O)NCC(=O)N3CSC[C@H]3C#N)c2c1 [Example 28, (R)—N-(2-(4-cyanothiazolidin-3-yl)-2-oxoethyl)-6-methylquinoline-4-carboxamide] |
| 6.43 | 9.44 | 10.06 | Cn1ncc(Cc2ccc3nccc(C(=O)NCC(=O)N4CSC[C@H]4C#N)c3c2)n1 [Example 41, (R)—N-(2-(4-Cyanothiazolidin-3-yl)-2-oxoethyl)-6-((2-methyl-2H-1,2,3-triazol-4-yl)methyl)quinoline-4-carboxamide] |
| 6.28 | 9.74 | 9.47 | Cc1cc(C)c(Cc2ccc3nccc(C(=O)NCC(=O)N4CSC[C@H]4C#N)c3c2)cn1 [Example 39, (R)—N-(2-(4-Cyanothiazolidin-3-yl)-2-oxoethyl)-6-((4,6-dimethylpyridin-3-yl)methyl)quinoline-4-carboxamide] |
| 7.46 | 9.04 | 9.10 | N#C[C@@H]1CSCN1C(=O)CNC(=O)c1ccnc2ccc(C(F)(F)F)cc12 [Example 17, (R)—N-(2-(4-Cyanothiazolidin-3-yl)-2-oxoethyl)-6-(trifluoromethyl)-quinoline-4-carboxamide] |
| 5.77 | 9.20 | 8.77 | COCC(OC)c1ccc2nccc(C(=O)NCC(=O)N3CSC[C@H]3C#N)c2c1 (mixture of isomers) [Example 30, N-(2-((R)-4-Cyanothiazolidin-3-yl)-2-oxoethyl)-6-((RS)-1,2-dimethoxyethyl)quinoline-4-carboxamide] |
| 6.34 | 9.82 | 9.82 | COC1(c2ccc3nccc(C(=O)NCC(=O)N4CSC[C@H]4C#N)c3c2)CCOCC1 [Example 66, (R)—N-(2-(4-Cyanothiazolidin-3-yl)-2-oxoethyl)-6-(4-methoxy-tetrahydro-2H-pyran-4-yl)quinoline-4-carboxamide] |
| 6.74 | 9.47 | 9.68 | Cc1conc1Cc1ccc2nccc(C(=O)NCC(=O)N3CSC[C@H]3C#N)c2c1 [Example 38, (R)—N-(2-(4-Cyanothiazolidin-3-yl)-2-oxoethyl)-6-((4-methylisoxazol-3-yl)methyl)quinoline-4-carboxamide] |
| 6.48 | 10.01 |  | CO[C@H]1C[C@](F)(c2ccc3nccc(C(=O)NCC(=O)N4CSC[C@H]4C#N)c3c2)C1 (single isomer, unassigned) [Example 63, N-(2-((R)-4-Cyanothiazolidin-3-yl)-2-oxoethyl)-6-((1r,3R*)-1-fluoro-3-methoxycyclobutyl)quinoline-4-carboxamide] |
| 6.68 | 10.04 |  | N#C[C@@H]1CSCN1C(=O)CNC(=O)c1ccnc2ccc(CC3CCOC3)cc12 (mixture of isomers) [Example 65, N-(2-((R)-4-Cyanothiazolidin-3-yl)-2-oxoethyl)-6-(((RS)-tetrahydrofuran-3-yl)methyl)quinoline-4-carboxamide] |
| 6.96 | 9.72 |  | CC(c1ccc2nccc(C(=O)NCC(=O)N3CSC[C@H]3C#N)c2c1)c1ncccc1F (mixture of isomers) [Example 12, N-(2-((R)-4-Cyanothiazolidin-3-yl)-2-oxoethyl)-6-((RS)-1-(3-fluoropyridin-2-yl)ethyl)quinoline-4-carboxamide] |
